In US20110160121A1, “UNACYLATED GHRELIN AND ANALOGS AS THERAPEUTIC AGENTS FOR VASCULAR REMODELING IN DIABETIC PATIENTS AND TREATMENT OF CARDIOVASCULAR DISEASE” (ALIZE PHARMA SAS, priority 2008, published 2011):
Where no end group is shown, it is not given here.

What was measured:
CAC [1] = assay: Expansion and arterial commitment of CAC recovered from UAG-challenged mice, cultured with IL-3; type: in vivo, mouse
Experimental: After treatment, cells were recovered, assayed by FACS analysis, counted and cultured. […] Black lines refer to preimmune IgG used as negative control and grey lines refer to surface marker expression. Similar results were obtained when CAC from untreated diabetic mice as well as untreated or treated wild-type mice were analyzed (data not shown).
RNA isolation and quantitative real-time PCR—CAC from diabetic patients, healthy subjects and mice treated with UAG or saline were cultured in EGM-2 medium. Human arterial and venous cells were used as a positive controls. mRNA quantification was performed by Q-RT-PCR, as previously described (Ref. 24). The relative expression of Ephrin B2, Notch1, Notch4 and EphB4 were calculated by using comparative threshold cycle methods. The human and murine primer sequences used were described (Refs. 25, 26).
Flow Cytometry—To analyze CAC cell-cycle progression, cells recovered from diabetic, healthy subjects, NOD/SCID, ob/ob and wt mice, were cultured in EBM-2 supplemented with IL-3 (10 ng/ml), FACS analysis was performed as previously described (Ref. 20). Cell surface molecules were evaluated by flow cytometry as previously described (Ref. 24). Frequency of marker-positive cells is expressed as mean±standard deviation (SD). […]

CAC [2] = assay: CAC senescence (acidic beta-gal / SA-beta-gal activity) in cultured CAC; type: cell-based, human; settings: FIG. 2A
Experimental: To this end, the effect of AGE treatment, alone or in combination with UAG, was first evaluated on SA-β-gal activity. […] In addition, AGE-induced p53 accumulation and senescent like-growth arrest were prevented by silencing p53 (FIG. 2C).
CAC Senescence—Senescence was evaluated by acidic β-gal activity on CAC recovered from normal subjects cultured in EGM2 medium for 4 days with UAG or AGE+UAG and saline- or UAG-treated diabetic patients (Ref. 22). Briefly, CAC were washed in phosphate-buffered saline, fixed for 3 min at room temperature in 2% paraformaldehyde, washed, and incubated for 24 h at 37° C. with fresh SA-β-gal stain solution: 1 mg/ml 5-bromo-4-chloro-3-indolyl β-D-galactopyranoside (X-gal), 5 mM/liter potassium ferrocyanide, 5 mM/liter ferricyanide, 150 mM/liter NaCl, 2 mM/liter MgCl2, 0.01% sodium deoxycholate, and 0.02% Nonidet P-40. SA-β-gal-positive cells were counted manually by 3 independent investigators.

CAC membranes = assay: Competition binding with [125I-Tyr4]-UAG on CAC membranes; parameters: species or system human; settings: 100 nM competitor, 0.25 nM radioligand; FIG. 5A
Excerpt: The specific binding of [^125I-Tyr^4]-UAG (calculated as difference between binding in the absence, control, and in the presence of UAG) represented about 75% of the control value (P<0.001) and was detected either on fresh (0.25 and 0.26 fmol) or frozen-thawed (0.20 and 0.33 fmol) CAC membranes from two different cell preparations.

CAC [3] = assay: Detection of ROS in CAC (DCF-DA assay, FACS); type: cell-based, human
Experimental: First, cell-cycle progression in response to UAG and AG was evaluated. […] To investigate whether this effect relies on inhibition of baseline ROS production, DCF-DA assay was performed. […] H2O2 was used as positive control. AGE-mediated damage signals mainly rely on ROS production (Ref. 29). […] Detection of ROS—DCF-DA (0.5 μM final concentration) was added to CAC in the indicated culture conditions. At the indicated times, the cells were subjected to FACS analysis and processed as previously described (Ref. 22). H2O2 was used as positive control.

CAC [4] = assay: Expansion (S phase) of CAC recovered from treated patients, cultured with IL-3; type: in vivo, human; settings: cells recovered from treated diabetic patients; FIG. 3C
Experimental: To confirm their vascular features, the cells recovered from patients and controls were cultured with IL-3; which is able to induce expansion and arterial morphogenesis of CD45^+ cells derived from both peripheral blood and BM (Ref. 28).
Flow Cytometry—To analyze CAC cell-cycle progression, cells recovered from diabetic, healthy subjects, NOD/SCID, ob/ob and wt mice, were cultured in EBM-2 supplemented with IL-3 (10 ng/ml), FACS analysis was performed as previously described (Ref. 20). Cell surface molecules were evaluated by flow cytometry as previously described (Ref. 24). Frequency of marker-positive cells is expressed as mean±standard deviation (SD).

cardiomyocytes = settings: Ref. 8; cited from earlier work
human arteries = settings: Ref. 35; cited from earlier work

For “1-NH2Gly-Ser-Ser-Phe-Leu-Ser-Pro-Glu-His-Gln-Arg-Val-Gln-Gln-Arg-Lys-Glu-Ser-Lys-Lys-Pro-Pro-Ala-Lys-Leu-Gln-Pro-Arg-28 (H-GSSFLSPEHQRVQQRKESKKPPAKLQPR; ends and bridges not checked; listed as Homo sapiens) [UAG]”, the “arterial commitment of recovered CAC” value (CAC [1]; CAC from UAG-challenged mice cultured in the presence of IL-3, FIG. 4D) was “acquire arterial commitment”, the “expansion of recovered CAC” value (CAC [1]; CAC from UAG-challenged mice, FIG. 4C) was “could be expanded” and the “number of SA-beta-gal positive cells” value (CAC [2]; UAG added to AGE-cultured CAC) was “significant reduction in the number of SA-β-gal positive cells”. The “number of senescent cells (SA-beta-gal activity)” value (CAC [2]; cultured CAC, UAG alone) was “reduce the number of senescent cells”, the “inhibition of binding of [125I-Tyr4]-UAG to CAC membranes” value (CAC membranes) was “inhibited” and the “level of ROS production in AGE-cultured cells” value (CAC [3]; AGE-cultured CAC, FIG. 1C, 1F) was “the level of ROS production in AGE-cultured cells was reduced”. The “intracellular ROS production in diabetic-recovered cells” value (CAC [3]; CAC isolated from type 2 diabetic patients, treated in vitro, FIG. 1D) was “reduced intracellular ROS production”, the “baseline level of ROS production” value (CAC [3]; CAC, compared to untreated cells, FIG. 1B, 1E) was “drastically reduces the baseline level of ROS production” and the “cell expansion (cells in S phase) with IL-3” value (CAC [4]) was “underwent cell expansion”. For the same substance, the “inhibition of experimentally-induced cell death” value (cardiomyocytes) was “inhibit experimentally-induced cell death” and the vasodilator action (human arteries) was “have vasodilator actions in human arteries”.
